Test results as given in the NIST ThermoML archive (doi:10.1016/j.jct.2007.10.002).
± gives the expanded uncertainty stated by the source.

Experiments:
[1] = refractive index (Na D-line) (dimensionless); settings: 298.15 K; 101.33 kPa; Liquid; Standard Abbe refractometry
[2] = 298.15 K, 101 kPa, Liquid; for viscosity: Capillary tube (Ostwald / Ubbelohde) method; for mass density: Vibrating tube method
[3] = xn = mol fraction of the nth substance listed; settings: 298.15 K, 101 kPa, Liquid; for viscosity: Capillary tube (Ostwald / Ubbelohde) method; for mass density: Vibrating tube method
[4] = refractive index (Na D-line) (dimensionless); xn = mol fraction of the nth substance listed; settings: 298.15 K, 101 kPa, Liquid, Standard Abbe refractometry

SMILES: CCCCn1cc[n+](C)c1C.F[B-](F)(F)F [1-butyl-2,3-dimethylimidazolium tetrafluoroborate]
- refractive index [1]: 1.433 ± 0.002
- viscosity [2]: 455.81 ± 29 mPa·s
- mass density [2]: 1191.2 ± 7.7 kg/m3

SMILES: CCCCn1cc[n+](C)c1C.F[B-](F)(F)F [1-butyl-2,3-dimethylimidazolium tetrafluoroborate] + O
- viscosity ([3]; x1 = 0.0085): 1.06 ± 0.01 mPa·s
- viscosity ([3]; x1 = 0.0397): 1.83 ± 0.02 mPa·s
- viscosity ([3]; x1 = 0.1068): 3.96 ± 0.04 mPa·s
- viscosity ([3]; x1 = 0.1997): 7.34 ± 0.08 mPa·s
- viscosity ([3]; x1 = 0.2577): 10.07 ± 0.11 mPa·s
- viscosity ([3]; x1 = 0.3222): 12.62 ± 0.16 mPa·s
- viscosity ([3]; x1 = 0.7058): 94.63 ± 2.6 mPa·s
- viscosity ([3]; x1 = 0.7325): 104.97 ± 3.1 mPa·s
- viscosity ([3]; x1 = 0.8659): 214.82 ± 9.5 mPa·s
- viscosity ([3]; x1 = 1): 455.81 ± 29 mPa·s
- mass density ([3]; x1 = 0.0085): 1012.56 ± 0.095 kg/m3
- mass density ([3]; x1 = 0.0397): 1053.33 ± 0.16 kg/m3
- mass density ([3]; x1 = 0.1068): 1100.33 ± 0.3 kg/m3
- mass density ([3]; x1 = 0.1997): 1132.18 ± 0.58 kg/m3
- mass density ([3]; x1 = 0.2577): 1144.22 ± 0.81 kg/m3
- mass density ([3]; x1 = 0.3222): 1154.04 ± 1.1 kg/m3
- mass density ([3]; x1 = 0.7058): 1182.14 ± 4 kg/m3
- mass density ([3]; x1 = 0.7325): 1183.22 ± 4.3 kg/m3
- mass density ([3]; x1 = 0.8659): 1187.78 ± 5.9 kg/m3
- mass density ([3]; x1 = 1): 1191.2 ± 7.7 kg/m3
- refractive index ([4]; x1 = 0.0397): 1.362 ± 0.002
- refractive index ([4]; x1 = 0.1068): 1.387 ± 0.002
- refractive index ([4]; x1 = 0.1997): 1.404 ± 0.002
- refractive index ([4]; x1 = 0.2577): 1.411 ± 0.002
- refractive index ([4]; x1 = 0.3222): 1.417 ± 0.002
- refractive index ([4]; x1 = 0.4983): 1.423 ± 0.002
- refractive index ([4]; x1 = 0.7058): 1.429 ± 0.002
- refractive index ([4]; x1 = 0.7325): 1.43 ± 0.002
- refractive index ([4]; x1 = 0.8659): 1.432 ± 0.002
- refractive index ([4]; x1 = 1): 1.433 ± 0.002

SMILES: CCCCn1cc[n+](C)c1.F[B-](F)(F)F [1-butyl-3-methylimidazolium tetrafluoroborate]
- refractive index [1]: 1.422 ± 0.002
- viscosity [2]: 100.66 ± 3.3 mPa·s
- mass density [2]: 1200.3 ± 7.8 kg/m3

SMILES: CCCCn1cc[n+](C)c1.F[B-](F)(F)F [1-butyl-3-methylimidazolium tetrafluoroborate] + O
- viscosity ([3]; x1 = 0.036): 1.51 ± 0.01 mPa·s
- viscosity ([3]; x1 = 0.044): 1.67 ± 0.02 mPa·s
- viscosity ([3]; x1 = 0.1267): 3.22 ± 0.03 mPa·s
- viscosity ([3]; x1 = 0.3134): 7.2 ± 0.09 mPa·s
- viscosity ([3]; x1 = 0.4984): 13.63 ± 0.22 mPa·s
- viscosity ([3]; x1 = 0.5802): 19.25 ± 0.34 mPa·s
- viscosity ([3]; x1 = 0.8089): 46.55 ± 1.1 mPa·s
- viscosity ([3]; x1 = 0.9719): 88.87 ± 2.7 mPa·s
- viscosity ([3]; x1 = 1): 100.66 ± 3.3 mPa·s
- mass density ([3]; x1 = 0.036): 1050.07 ± 0.15 kg/m3
- mass density ([3]; x1 = 0.044): 1058.55 ± 0.17 kg/m3
- mass density ([3]; x1 = 0.1267): 1112.51 ± 0.36 kg/m3
- mass density ([3]; x1 = 0.3134): 1158.59 ± 1.1 kg/m3
- mass density ([3]; x1 = 0.4984): 1177.85 ± 2.2 kg/m3
- mass density ([3]; x1 = 0.5802): 1183.49 ± 2.9 kg/m3
- mass density ([3]; x1 = 0.8089): 1194.47 ± 5.3 kg/m3
- mass density ([3]; x1 = 0.9719): 1199.54 ± 7.4 kg/m3
- mass density ([3]; x1 = 1): 1200.3 ± 7.8 kg/m3
- refractive index ([4]; x1 = 0.044): 1.36 ± 0.002
- refractive index ([4]; x1 = 0.1267): 1.384 ± 0.002
- refractive index ([4]; x1 = 0.3134): 1.405 ± 0.002
- refractive index ([4]; x1 = 0.4984): 1.412 ± 0.002
- refractive index ([4]; x1 = 0.5802): 1.415 ± 0.002
- refractive index ([4]; x1 = 0.7488): 1.418 ± 0.002
- refractive index ([4]; x1 = 0.8089): 1.419 ± 0.002
- refractive index ([4]; x1 = 0.9719): 1.421 ± 0.002
- refractive index ([4]; x1 = 1): 1.422 ± 0.002

SMILES: O [water] + CCCCn1cc[n+](C)c1.F[B-](F)(F)F
- viscosity ([3]; x2 = 0): 0.89 ± 0.01 mPa·s
- refractive index ([4]; x2 = 0): 1.333 ± 0.002

SMILES: O [water] + CCCCn1cc[n+](C)c1C.F[B-](F)(F)F
- viscosity ([3]; x2 = 0): 0.89 ± 0.01 mPa·s
- refractive index ([4]; x2 = 0): 1.333 ± 0.002
